Consider two compounds from patent US7632524B2, “Pharmaceutical preparations for the treatment of itch, nausea, hyperalgesia and the complications of opioid agonists” (priority 2002, dated 2009).

Common to all, as to format: in vivo
The test system of data set [1] is opioid-induced emesis. In words: Ferret model of opioid (morphine-6-glucuronide)-induced emesis. The method, then: FIG. 1. Prevention of opioid-induced emesis by the Croton speceis extract, (Zangrado®). Emesis as measured by the number of vomiting and retching episodes per hour was induced by parenteral administration of the opioid narcotic, morphine-6-glucuronide (15 mg/kg) ip.
Sangre de Grado has also been used ethnomedically for the treatment of a variety of intestinal complications including diarrhea, ulcerations, cancer and emesis. Using a well-established ferret model of post-operative complications of emesis induced by morphine, Zangrado (CGO 110) was administered intraperitoneally (3 mg/kg) to ferrets 15 minutes prior to the administration of morphine-6-glucuronide (M6G), known to promote itching, retching and vomiting. The animals were monitored for sixty minutes.
As shown in FIG. 1 the subcutaneous injection of 0.05 mg/kg M6G caused a significant number of vomiting (2.2±0.4) and retching (10±1.2) incidences in the control group. In those animals treated with Zangrado (CGO 110), the number of these episodes was virtually abolished (vomiting 0.6±0.3; retching 2.2±0.7, P<0.05). Given the utility of this model to predict treatments for nausea and vomiting, Zangrado (CGO 110) contains active components and is effective in the treatment of emesis.

Data set [2] deals with opioid-induced itch. The experiment in a line: Ferret model of opioid (morphine-6-glucuronide)-induced itch (licking). The method, then:
FIG. 2: FIG. 2. Prevention of opioid-induced itch by Zangrado. Itch, as measured by the number of licking episodes per hour, was induced by parenteral administration of the opioid narcotic, morphine-6-glucuronide (15 mg/kg) ip.
Zangrado (CGO 110) contains active components and is effective in the treatment of itch.

Data set [3] in a line: Body temperature and sedation at anti-emetic doses. The settings on record: CGO 110 3 mg/kg. The text has this: As such, Zangrado represents a significant improvement in the treatment of emesis and itch.

Consider `Cc1c(C(=O)NN2CCCCC2)nn(-c2ccc(Cl)cc2Cl)c1-c1ccc(I)cc1` [AM251], for which the “effect on emesis in naïve animals” value in data set [1] was “promotes emesis”. Besides, the “effect on licking in naïve animals” value in data set [2] is on record as “promotes licking”.

On to `Cc1c(C(=O)c2cccc3ccccc23)c2cccc3c2n1[C@H](CN1CCOCC1)CO3` [WIN 55, 212-2], for which, in data set [3], the “effect on body temperature” value is “produces a drop in body temperature” and the sedation result is reported as “significant sedation”.
